PubChem BioAssay (NCI)
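Method: 48-hour compound exposure of cells in 96-well plates, five concentrations, linear interpolation of endpoints. The concentration for 50% growth inhibition is given as GI50. At the TGI there is no net growth.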

Columns and labels:
Test in all cases: NCI-60 cell line screen, 48 h
A549 NSCLC = test system: A549 NSCLC
A498 renal = test system: A498 renal
CCRF-CEM leukemia = test system: CCRF-CEM leukemia
SN12C renal = test system: SN12C renal
MALME-3M melanoma = test system: MALME-3M melanoma
SR leukemia = test system: SR leukemia
RXF 393 renal = test system: RXF 393 renal
HCT-116 colon = test system: HCT-116 colon
M14 melanoma = test system: M14 melanoma
HT29 colon = test system: HT29 colon
SK-MEL-2 melanoma = test system: SK-MEL-2 melanoma
ACHN renal = test system: ACHN renal
OVCAR-4 ovarian = test system: OVCAR-4 ovarian
SW-620 colon = test system: SW-620 colon
MDA-MB-435 = test system: MDA-MB-435
KM12 colon = test system: KM12 colon
PC-3 prostate = test system: PC-3 prostate
SF-539 CNS = test system: SF-539 CNS
NCI-H522 lung = test system: NCI-H522 lung
NCI-H460 lung = test system: NCI-H460 lung
K-562 leukemia = test system: K-562 leukemia
NCI-H226 lung = test system: NCI-H226 lung
MOLT-4 leukemia = test system: MOLT-4 leukemia
COLO 205 colon = test system: COLO 205 colon
OVCAR-5 ovarian = test system: OVCAR-5 ovarian
NCI-H23 lung = test system: NCI-H23 lung
UACC-62 melanoma = test system: UACC-62 melanoma
CAKI-1 renal = test system: CAKI-1 renal
HOP-92 NSCLC = test system: HOP-92 NSCLC
UACC-257 melanoma = test system: UACC-257 melanoma
U251 CNS = test system: U251 CNS
SF-295 CNS = test system: SF-295 CNS
T-47D breast = test system: T-47D breast
RPMI-8226 leukemia = test system: RPMI-8226 leukemia
SK-OV-3 ovarian = test system: SK-OV-3 ovarian
LOX IMVI melanoma = test system: LOX IMVI melanoma
BT-549 breast = test system: BT-549 breast
HCT-15 colon = test system: HCT-15 colon
HCC-2998 colon = test system: HCC-2998 colon
SNB-75 CNS = test system: SNB-75 CNS
HL-60(TB) leukemia = test system: HL-60(TB) leukemia
MDA-MB-231 breast = test system: MDA-MB-231 breast
SF-268 CNS = test system: SF-268 CNS
UO-31 renal = test system: UO-31 renal
NCI/ADR-RES ovarian = test system: NCI/ADR-RES ovarian
SK-MEL-5 melanoma = test system: SK-MEL-5 melanoma
EKVX NSCLC = test system: EKVX NSCLC
IGROV1 ovarian = test system: IGROV1 ovarian
786-0 renal = test system: 786-0 renal
MCF7 breast = test system: MCF7 breast
SK-MEL-28 melanoma = test system: SK-MEL-28 melanoma
DU-145 prostate = test system: DU-145 prostate
HOP-62 NSCLC = test system: HOP-62 NSCLC
OVCAR-8 ovarian = test system: OVCAR-8 ovarian
SNB-19 CNS = test system: SNB-19 CNS
OVCAR-3 ovarian = test system: OVCAR-3 ovarian
TK-10 renal = test system: TK-10 renal

Compound: O=[N+]([O-])c1cc([N+](=O)[O-])c(N2CCCC2)cc1NN=C(c1ccc(O)cc1)c1ccc(O)cc1
- GI50 (A549 NSCLC): 3.82 µM
- TGI (A549 NSCLC): 16.4 µM
- GI50 (A498 renal): 5.34 µM
- TGI (A498 renal): 16.7 µM
- GI50 (CCRF-CEM leukemia): 2.17 µM
- TGI (CCRF-CEM leukemia): 21.5 µM
- GI50 (SN12C renal): 10.1 µM
- TGI (SN12C renal): 23.3 µM
- GI50 (MALME-3M melanoma): 14.9 µM
- TGI (MALME-3M melanoma): 35 µM
- GI50 (SR leukemia): 5.98 µM
- TGI (SR leukemia): 30.9 µM
- GI50 (RXF 393 renal): 3.12 µM
- TGI (RXF 393 renal): 12.8 µM
- GI50 (HCT-116 colon): 4.54 µM
- TGI (HCT-116 colon): 16.5 µM
- GI50 (M14 melanoma): 9.62 µM
- TGI (M14 melanoma): 22.1 µM
- GI50 (HT29 colon): 3.41 µM
- TGI (HT29 colon): 14.5 µM
- GI50 (SK-MEL-2 melanoma): 7.04 µM
- TGI (SK-MEL-2 melanoma): 24.3 µM
- GI50 (ACHN renal): 2.31 µM
- TGI (ACHN renal): 11.7 µM
- GI50 (OVCAR-4 ovarian): 4.03 µM
- TGI (OVCAR-4 ovarian): 40 µM
- GI50 (SW-620 colon): 9.15 µM
- TGI (SW-620 colon): 21.2 µM
- GI50 (MDA-MB-435): 2.52 µM
- TGI (MDA-MB-435): 14.4 µM
- GI50 (KM12 colon): 3.51 µM
- TGI (KM12 colon): 14.1 µM
- GI50 (PC-3 prostate): 6.07 µM
- TGI (PC-3 prostate): > 100 µM
- GI50 (SF-539 CNS): 12.4 µM
- TGI (SF-539 CNS): 24.8 µM
- GI50 (NCI-H522 lung): 12.8 µM
- TGI (NCI-H522 lung): 45.6 µM
- GI50 (NCI-H460 lung): 4.21 µM
- TGI (NCI-H460 lung): 15.9 µM
- GI50 (K-562 leukemia): 2.35 µM
- TGI (K-562 leukemia): 21 µM
- GI50 (NCI-H226 lung): 16.9 µM
- TGI (NCI-H226 lung): 45.8 µM
- GI50 (MOLT-4 leukemia): 3.36 µM
- TGI (MOLT-4 leukemia): > 100 µM
- GI50 (COLO 205 colon): 3.79 µM
- TGI (COLO 205 colon): 15.5 µM
- GI50 (OVCAR-5 ovarian): 17.2 µM
- TGI (OVCAR-5 ovarian): 30.9 µM
- GI50 (NCI-H23 lung): 9.46 µM
- TGI (NCI-H23 lung): 23.3 µM
- GI50 (UACC-62 melanoma): 5.82 µM
- TGI (UACC-62 melanoma): 19 µM
- GI50 (CAKI-1 renal): 6.23 µM
- TGI (CAKI-1 renal): 21.1 µM
- GI50 (HOP-92 NSCLC): 10.1 µM
- TGI (HOP-92 NSCLC): 26.4 µM
- GI50 (UACC-257 melanoma): 13.6 µM
- TGI (UACC-257 melanoma): 26.9 µM
- GI50 (U251 CNS): 4.81 µM
- TGI (U251 CNS): 18.3 µM
- GI50 (SF-295 CNS): 1.48 µM
- TGI (SF-295 CNS): 5.36 µM
- GI50 (T-47D breast): 0.681 µM
- TGI (T-47D breast): 4.76 µM
- GI50 (RPMI-8226 leukemia): 3.78 µM
- TGI (RPMI-8226 leukemia): 24 µM
- GI50 (SK-OV-3 ovarian): 7.44 µM
- TGI (SK-OV-3 ovarian): 19.8 µM
- GI50 (LOX IMVI melanoma): 3.28 µM
- TGI (LOX IMVI melanoma): 14.6 µM
- GI50 (BT-549 breast): 18.5 µM
- TGI (BT-549 breast): 75.3 µM
- GI50 (HCT-15 colon): 3.98 µM
- TGI (HCT-15 colon): 15.9 µM
- GI50 (HCC-2998 colon): 4.12 µM
- TGI (HCC-2998 colon): 14.5 µM
- GI50 (SNB-75 CNS): 1.34 µM
- TGI (SNB-75 CNS): 6.4 µM
- GI50 (HL-60(TB) leukemia): 7.89 µM
- TGI (HL-60(TB) leukemia): 37.5 µM
- GI50 (MDA-MB-231 breast): 4.01 µM
- TGI (MDA-MB-231 breast): 16 µM
- GI50 (SF-268 CNS): 2.99 µM
- TGI (SF-268 CNS): 12.6 µM
- GI50 (UO-31 renal): 5.54 µM
- TGI (UO-31 renal): 18.5 µM
- GI50 (NCI/ADR-RES ovarian): 13.6 µM
- TGI (NCI/ADR-RES ovarian): 37.9 µM
- GI50 (SK-MEL-5 melanoma): 2.73 µM
- TGI (SK-MEL-5 melanoma): 15.3 µM
- GI50 (EKVX NSCLC): 0.508 µM
- TGI (EKVX NSCLC): 23.9 µM
- GI50 (IGROV1 ovarian): 3.96 µM
- TGI (IGROV1 ovarian): 16.9 µM
- GI50 (786-0 renal): 6.88 µM
- TGI (786-0 renal): 19.8 µM
- GI50 (MCF7 breast): 3.55 µM
- TGI (MCF7 breast): 20.1 µM
- GI50 (SK-MEL-28 melanoma): 3.39 µM
- TGI (SK-MEL-28 melanoma): 13.8 µM
- GI50 (DU-145 prostate): 7.43 µM
- TGI (DU-145 prostate): 20.2 µM
- GI50 (HOP-62 NSCLC): 10.3 µM
- TGI (HOP-62 NSCLC): 24.5 µM
- GI50 (OVCAR-8 ovarian): 9.86 µM
- TGI (OVCAR-8 ovarian): 60.5 µM
- GI50 (SNB-19 CNS): 7.06 µM
- TGI (SNB-19 CNS): 21.6 µM
- GI50 (OVCAR-3 ovarian): 2.41 µM
- TGI (OVCAR-3 ovarian): 7.65 µM
- GI50 (TK-10 renal): 11.6 µM
- TGI (TK-10 renal): 35.8 µM
